PubChem BioAssay (NCI)
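Assay format: 96-well plates, 48-hour exposure. Here, GI50 denotes the concentration required for 50% inhibition of growth. Definition used: TGI = concentration required for complete inhibition of growth.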

Experiments:
Assay in all cases: NCI anticancer screen, dose series, 48 h
NCI-H226 lung = tested on: NCI-H226 lung
HCT-15 colon = tested on: HCT-15 colon
HT29 colon = tested on: HT29 colon
HL-60(TB) leukemia = tested on: HL-60(TB) leukemia
CCRF-CEM leukemia = tested on: CCRF-CEM leukemia
MALME-3M melanoma = tested on: MALME-3M melanoma
OVCAR-3 ovarian = tested on: OVCAR-3 ovarian
HS 578T breast = tested on: HS 578T breast
OVCAR-5 ovarian = tested on: OVCAR-5 ovarian
SK-OV-3 ovarian = tested on: SK-OV-3 ovarian
SR leukemia = tested on: SR leukemia
UACC-257 melanoma = tested on: UACC-257 melanoma
M14 melanoma = tested on: M14 melanoma
NCI/ADR-RES ovarian = tested on: NCI/ADR-RES ovarian
ACHN renal = tested on: ACHN renal
K-562 leukemia = tested on: K-562 leukemia
DU-145 prostate = tested on: DU-145 prostate
SF-295 CNS = tested on: SF-295 CNS
COLO 205 colon = tested on: COLO 205 colon
SK-MEL-28 melanoma = tested on: SK-MEL-28 melanoma
IGROV1 ovarian = tested on: IGROV1 ovarian
MOLT-4 leukemia = tested on: MOLT-4 leukemia
TK-10 renal = tested on: TK-10 renal
LOX IMVI melanoma = tested on: LOX IMVI melanoma
NCI-H23 lung = tested on: NCI-H23 lung
MDA-MB-435 = tested on: MDA-MB-435
CAKI-1 renal = tested on: CAKI-1 renal
HCT-116 colon = tested on: HCT-116 colon
SNB-19 CNS = tested on: SNB-19 CNS
786-0 renal = tested on: 786-0 renal
SF-268 CNS = tested on: SF-268 CNS
EKVX NSCLC = tested on: EKVX NSCLC
MDA-MB-231 breast = tested on: MDA-MB-231 breast
SF-539 CNS = tested on: SF-539 CNS
PC-3 prostate = tested on: PC-3 prostate
RPMI-8226 leukemia = tested on: RPMI-8226 leukemia
SK-MEL-2 melanoma = tested on: SK-MEL-2 melanoma
SW-620 colon = tested on: SW-620 colon
T-47D breast = tested on: T-47D breast
A498 renal = tested on: A498 renal
NCI-H522 lung = tested on: NCI-H522 lung
UACC-62 melanoma = tested on: UACC-62 melanoma
SN12C renal = tested on: SN12C renal
HOP-62 NSCLC = tested on: HOP-62 NSCLC
KM12 colon = tested on: KM12 colon
HOP-92 NSCLC = tested on: HOP-92 NSCLC
RXF 393 renal = tested on: RXF 393 renal
HCC-2998 colon = tested on: HCC-2998 colon
MCF7 breast = tested on: MCF7 breast
OVCAR-4 ovarian = tested on: OVCAR-4 ovarian
BT-549 breast = tested on: BT-549 breast
SK-MEL-5 melanoma = tested on: SK-MEL-5 melanoma
A549 NSCLC = tested on: A549 NSCLC
OVCAR-8 ovarian = tested on: OVCAR-8 ovarian
UO-31 renal = tested on: UO-31 renal
SNB-75 CNS = tested on: SNB-75 CNS

For `O=c1[nH]cnc2c1ccn2C1OC(CO)C(O)C1O` (configuration not stated), the GI50 (NCI-H226 lung) was 16.1 µM, the TGI (NCI-H226 lung) was greater than 100 µM and the GI50 (HCT-15 colon) was 4.1 µM. The TGI (HCT-15 colon) was greater than 100 µM, the GI50 (HT29 colon) was 5.73 µM and the TGI (HT29 colon) was greater than 100 µM. It also gave a GI50 (HL-60(TB) leukemia) of 3.88 µM, a TGI (HL-60(TB) leukemia) of 21.1 µM and a GI50 (CCRF-CEM leukemia) of 4.74 µM. The TGI (CCRF-CEM leukemia) was 96 µM, the GI50 (MALME-3M melanoma) was 6.42 µM and the TGI (MALME-3M melanoma) was 32.8 µM. For the same compound, the GI50 (OVCAR-3 ovarian) was 5.68 µM, the TGI (OVCAR-3 ovarian) was greater than 100 µM and the GI50 (HS 578T breast) was 14 µM. The TGI (HS 578T breast) was greater than 100 µM, the GI50 (OVCAR-5 ovarian) was 12 µM and the TGI (OVCAR-5 ovarian) was greater than 100 µM. For the same compound, the GI50 (SK-OV-3 ovarian) was 3.72 µM, the TGI (SK-OV-3 ovarian) was greater than 100 µM and the GI50 (SR leukemia) was 5.38 µM. The TGI (SR leukemia) was 49.3 µM, the GI50 (UACC-257 melanoma) was 12.3 µM and the TGI (UACC-257 melanoma) was 78 µM. For the same compound, the GI50 (M14 melanoma) was 4.36 µM, the TGI (M14 melanoma) was greater than 100 µM and the GI50 (NCI/ADR-RES ovarian) was 3.2 µM. For the same compound, the TGI (NCI/ADR-RES ovarian) was greater than 100 µM, the GI50 (ACHN renal) was 2510 nM and the TGI (ACHN renal) was greater than 100 µM. It also gave a GI50 (K-562 leukemia) of 5.86 µM, a TGI (K-562 leukemia) greater than 100 µM and a GI50 (DU-145 prostate) of 2340 nM. It also gave a TGI (DU-145 prostate) of 23.8 µM, a GI50 (SF-295 CNS) of 8.6 µM and a TGI (SF-295 CNS) greater than 100 µM. It also gave a GI50 (COLO 205 colon) of 3.41 µM, a TGI (COLO 205 colon) of 26.5 µM and a GI50 (SK-MEL-28 melanoma) of 18.6 µM. It also gave a TGI (SK-MEL-28 melanoma) greater than 100 µM, a GI50 (IGROV1 ovarian) of 4.32 µM and a TGI (IGROV1 ovarian) of 35.1 µM. For the same compound, the GI50 (MOLT-4 leukemia) was 4.38 µM, the TGI (MOLT-4 leukemia) was 20.3 µM and the GI50 (TK-10 renal) was 3.64 µM. It also gave a TGI (TK-10 renal) of 51.3 µM, a GI50 (LOX IMVI melanoma) of 2180 nM and a TGI (LOX IMVI melanoma) of 16 µM. It also gave a GI50 (NCI-H23 lung) of 6.01 µM, a TGI (NCI-H23 lung) of 65.4 µM and a GI50 (MDA-MB-435) of 9.35 µM. For the same compound, the TGI (MDA-MB-435) was greater than 100 µM, the GI50 (CAKI-1 renal) was 2570 nM and the TGI (CAKI-1 renal) was greater than 100 µM. It also gave a GI50 (HCT-116 colon) of 2290 nM, a TGI (HCT-116 colon) of 28.8 µM and a GI50 (SNB-19 CNS) of 14.8 µM. The TGI (SNB-19 CNS) was greater than 100 µM, the GI50 (786-0 renal) was 3.56 µM and the TGI (786-0 renal) was greater than 100 µM. The GI50 (SF-268 CNS) was 11.7 µM, the TGI (SF-268 CNS) was greater than 100 µM and the GI50 (EKVX NSCLC) was 17.8 µM. It also gave a TGI (EKVX NSCLC) greater than 100 µM, a GI50 (MDA-MB-231 breast) of 4.27 µM and a TGI (MDA-MB-231 breast) greater than 100 µM. For the same compound, the GI50 (SF-539 CNS) was 10.7 µM, the TGI (SF-539 CNS) was greater than 100 µM and the GI50 (PC-3 prostate) was 3.35 µM. It also gave a TGI (PC-3 prostate) greater than 100 µM, a GI50 (RPMI-8226 leukemia) of 3.15 µM and a TGI (RPMI-8226 leukemia) of 21.5 µM. The GI50 (SK-MEL-2 melanoma) was 3.04 µM, the TGI (SK-MEL-2 melanoma) was 17.5 µM and the GI50 (SW-620 colon) was 3.17 µM. The TGI (SW-620 colon) was greater than 100 µM, the GI50 (T-47D breast) was 2490 nM and the TGI (T-47D breast) was 80 µM. The GI50 (A498 renal) was 4.72 µM, the TGI (A498 renal) was 70.5 µM and the GI50 (NCI-H522 lung) was 7.32 µM. The TGI (NCI-H522 lung) was 34.7 µM, the GI50 (UACC-62 melanoma) was 10.1 µM and the TGI (UACC-62 melanoma) was 27.8 µM. For the same compound, the GI50 (SN12C renal) was 3.6 µM, the TGI (SN12C renal) was greater than 100 µM and the GI50 (HOP-62 NSCLC) was 6.7 µM. For the same compound, the TGI (HOP-62 NSCLC) was greater than 100 µM, the GI50 (KM12 colon) was 8.89 µM and the TGI (KM12 colon) was greater than 100 µM. For the same compound, the GI50 (HOP-92 NSCLC) was 2000 nM, the TGI (HOP-92 NSCLC) was 15.5 µM and the GI50 (RXF 393 renal) was 3.12 µM. It also gave a TGI (RXF 393 renal) of 22.9 µM, a GI50 (HCC-2998 colon) of 7.66 µM and a TGI (HCC-2998 colon) greater than 100 µM. For the same compound, the GI50 (MCF7 breast) was 2410 nM, the TGI (MCF7 breast) was greater than 100 µM and the GI50 (OVCAR-4 ovarian) was 1480 nM. It also gave a TGI (OVCAR-4 ovarian) of 28.7 µM, a GI50 (BT-549 breast) of 5.86 µM and a TGI (BT-549 breast) greater than 100 µM. It also gave a GI50 (SK-MEL-5 melanoma) of 6.1 µM, a TGI (SK-MEL-5 melanoma) of 19.2 µM and a GI50 (A549 NSCLC) of 7.53 µM. It also gave a TGI (A549 NSCLC) greater than 100 µM, a GI50 (OVCAR-8 ovarian) of 2300 nM and a TGI (OVCAR-8 ovarian) of 90.4 µM. For the same compound, the GI50 (UO-31 renal) was 2110 nM, the TGI (UO-31 renal) was 8.85 µM and the GI50 (SNB-75 CNS) was 3.8 µM. It also gave a TGI (SNB-75 CNS) greater than 100 µM.
